The target of one series is CYP2D6 (Homo sapiens (Human), UniProt P10635). Nature of the series: Inhibition of cytochrome P450 isoenzymes, CYP2D6. Type of series: in vitro ADME. On the procedure: (§1) 4.1 Experimental Purpose: To test the inhibitory effects of the compounds of the present disclosure on different isoforms of human cytochrome P450 isoenzymes
(§2) 1) The activities of CYP1A2, 2C9, 2C19, 2D6, and 3A4 were measured using a standard substrate method. In each reaction, the enzyme activities were measured in the presence and absence of the substance to be tested, wherein a single sample was measured at a total of eight test concentrations. A 5-in-1 mixed inhibitor was used.
(§3) 2) An incubation matrix comprising microsomes, a substrate, and an inhibitor or the compound to be tested was pre-incubated at 37° C. for 5 minutes, and then NADPH was added to start the reaction.
(§4) 3) After the incubation, acetonitrile with an internal standard was added to stop the reaction.
(§5) 4) Metabolites generated by the substrates were measured by using the LC-MS/MS method, and the peak area ratio of each metabolite to the internal standard was evaluated and the inhibition rate and IC50 were calculated.

The target of another series is CYP2C9 (Homo sapiens (Human), UniProt P11712). Briefly: Inhibition of cytochrome P450 isoenzymes, CYP2C9. Type of series: in vitro ADME. Particulars: >50 μM: inhibitory effect less than 50% at 50 μM; read-out: CYP 2C9 IC50. As for the experimental part: as §1, §2, §3, §4, §5
Chain of CYP2C9 (P11712 whole entry): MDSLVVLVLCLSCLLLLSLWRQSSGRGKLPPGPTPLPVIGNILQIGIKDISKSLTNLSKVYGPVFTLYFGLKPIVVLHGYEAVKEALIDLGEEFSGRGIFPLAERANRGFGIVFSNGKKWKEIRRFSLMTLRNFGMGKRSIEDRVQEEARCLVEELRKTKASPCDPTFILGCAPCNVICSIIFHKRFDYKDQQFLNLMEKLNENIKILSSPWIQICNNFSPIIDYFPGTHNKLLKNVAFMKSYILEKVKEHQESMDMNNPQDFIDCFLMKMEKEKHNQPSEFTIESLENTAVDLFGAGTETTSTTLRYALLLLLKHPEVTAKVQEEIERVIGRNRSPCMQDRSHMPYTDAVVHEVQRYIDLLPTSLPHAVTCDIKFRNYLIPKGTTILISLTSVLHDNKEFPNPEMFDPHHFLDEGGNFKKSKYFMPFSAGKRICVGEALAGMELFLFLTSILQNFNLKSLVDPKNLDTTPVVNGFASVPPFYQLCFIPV
The nature of series [1]: Metabolic stability in liver microsomes. Type of series: in vitro ADME. The following applies: pH 7.4; human liver microsomes 0.5 mg protein/mL; 45 mg microsome protein/g liver, 20 g liver/kg; read-out: Intrinsic Clearance CLint(liver) in Human Liver. On the procedure:
Test 3: Metabolic Stability in Liver Microsomes
3.1 Experimental Purpose: To test the metabolic stability of the compounds of the present disclosure in human liver microsomes
a. All samples as well as testosterone, diclofenac and propafenone acting as reference substances were dissolved in DMSO to a storage concentration of 10 mM.
b. Intermediate Solution: 5 μL of the substance to be tested or the reference substance was diluted with 45 μL of DMSO (with 450 μL of 1:1 methanol/water).
c. Working Solution: the intermediate solution was diluted with 450 μL of 100 mM potassium phosphate buffer solution (pH 7.4).
Assay Buffer: 100 mM potassium phosphate buffer (pH 7.4) • 10 mM MgCl2
Liver Microsome Solution (final concentration: 0.5 mg protein/mL):
Human liver microsomes, obtained from BD, Cat No. 452117, Lot No. 38291
b. 10 μL of the working solution containing the substance to be tested or the reference substance was added to each of plates (T0, T5, T10, T20, T30, T60, NCF60).
c. The liver microsome solution was dispensed into a 96-well plate in an amount of 680 μL/well, then 80 was added, and then T was added to each of the plates. The above incubation plate was placed at 37° C. and pre-incubated for approximately 10 minutes.
d. 10 μL of 100 mM potassium phosphate buffer was added to each well in the NCF60 plate.
e. After the pre-incubation was finished, the NADPH regeneration system working solution was dispensed into the 96-well plate in an amount of 90 μL/well, and then added to each of the plates in an amount of 10 μL/well to start the reaction.
f. The plates were incubated for an appropriate time (e.g., 5, 10, 20, 30, or 60 minutes).
g. The stop solution (refrigerated at 4° C., containing 100 ng/mL Tolbutamide and 100 ng/mL Labetalol) was added to each sample well in an amount of 300 μL/well.
h. The sample plates were shaken well for about 10 minutes and centrifuged at 4,000 rpm for 20 minutes at 4° C. During the centrifugation, 300 μL of HPLC water was added to each well, and 100 μL of the supernatant was taken for LC-MS/MS analysis.
T1/2 and Clint(mic) were calculated by the following formula: […]
Each gram of liver contained 45 mg of microsome protein, and the liver weight was 20 g/kg in a human.
Ct was the concentration at time t, t was the incubation time, C0 was the concentration at time 0, Ke was an elimination rate constant, Clint(mic) was the intrinsic clearance in liver microsomes, and Clint(liver) was the intrinsic clearance in liver. CLint(mic)=0.693/half-life/mg of microsome protein per mL(concentration of microsomes during incubation) CLint(liver)=CLint(mic)×mg of microsome protein/g of liver weight×a ratio of liver weight to body weight 3.4 Test Results

The target in the next series is CYP3A4 (Homo sapiens (Human), UniProt P08684). Briefly: Inhibition of cytochrome P450 isoenzymes, CYP3A4. The following applies: >50 μM: inhibitory effect less than 50% at 50 μM; read-out: CYP 3A4 IC50. Type of series: in vitro ADME. As for the experimental part:
as §1, §2, §3, §4, §5

Series [2] is described as follows: Pharmacokinetics of the compounds in rats. In kind it is in vivo, rat. The following applies: for Apparent Clearance Cl: male SD rats, single IV, mg/Kg: Comparative Compound 1 1.80, (+)-5 2.40, (+)-16 1.76, HCl salt of (+)-23 1.71; for Kp at […] / Vd / AUC(0-inf) / half-life / C0: male, SD, rat, iv; for Kp at […]: brain/plasma, read-out: Brain/Plasm Ratio B/P ratio; for Vd / AUC(0-inf) / half-life / C0: plasma; for Vd: read-out: Apparent Distribution Volume Vd; for AUC(0-inf): read-out: Area under the Curve AUC0-inf; for half-life: read-out: Hal-life T1/2 (converted); for C0: read-out: Initial Concentration C0. As for the experimental part:
6.1 Experimental Purpose: To measure, using a LC/MS/MS method, the medicament concentrations of the compound in plasma and specific tissues at different time points after the compound was administered by a single intravenous injection (IV) to 7-9-week-old male SD rats used as test animals, to study on the pharmacokinetic behavior of the compound of the present disclosure in rats, and to evaluate the pharmacokinetic characteristics thereof. 6.2 Compound Formulation
Each of them was formulated at a concentration of 1 mg/mL and was used for IV (intravenous injection) administration.
The actual weights of the rats were weighed on the day of administration and volumes to be administered were calculated. The above formulated solutions to be administered were administered by injection into caudal veins of rats.
About 0.2 mL of whole blood samples were collected by means of jugular vein puncture at the time set in the experimental protocol, and the actual blood collection time was recorded in the experimental records. All the blood samples were added to labeled plastic centrifuge tubes to which K2-EDTA anticoagulant was added in advance. After the blood samples were collected, they were centrifuged at 3,000 g for 10 minutes at 4° C. to prepare the supernatant plasma, and the plasma was stored at −20° C. or a lower temperature for LC-MS/MS analysis.
The concentrations of the compounds in rat plasma were measured by using high-performance liquid chromatography-tandem mass spectrometry (LC-MS/MS). The retention durations of the compounds and internal standard, chromatogram acquisition, and integration of chromatograms were processed using the software Analyst (Applied Biosystems), and data statistics were processed using the software Watson LIMS (Thermo Fisher Scientific) or Analyst (Applied Biosystems). The plasma concentration was processed using a non-compartmental model of WinNonlin™ Version 6.3 (Pharsight, Mountain View, Calif.) which was a pharmacokinetic software, and the pharmacokinetic parameters were calculated using a linear logarithmic trapezoidal method.

The results in this text go back to patent publication US11124523B2, “2,6-dioxaspiro [4,5] decane derivatives and preparation method therefor and pharmaceutical applications thereof” (SHANDONG LUYE PHARMACEUTICAL CO., LTD., priority 2017, dated 2021).

Where a name gives a salt, the structure may show the parent alone. Read-outs that look alike come from different tables or passages of the source.

Chain of CYP2D6 (P10635 whole entry, canonical isoform): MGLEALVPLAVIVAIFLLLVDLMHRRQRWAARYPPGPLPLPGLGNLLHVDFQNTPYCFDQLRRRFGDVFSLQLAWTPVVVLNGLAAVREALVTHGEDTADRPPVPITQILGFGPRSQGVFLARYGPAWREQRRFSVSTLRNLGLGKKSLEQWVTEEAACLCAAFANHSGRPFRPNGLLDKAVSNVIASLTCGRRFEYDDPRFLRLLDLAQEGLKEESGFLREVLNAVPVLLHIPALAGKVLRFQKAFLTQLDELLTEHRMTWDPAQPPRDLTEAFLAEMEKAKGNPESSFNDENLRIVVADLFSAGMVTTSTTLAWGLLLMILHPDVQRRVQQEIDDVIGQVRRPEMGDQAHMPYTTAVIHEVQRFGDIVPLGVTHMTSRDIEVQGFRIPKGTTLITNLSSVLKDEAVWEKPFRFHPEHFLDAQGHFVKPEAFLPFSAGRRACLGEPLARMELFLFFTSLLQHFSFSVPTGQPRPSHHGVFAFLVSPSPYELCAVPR
Chain of CYP3A4 (P08684 whole entry): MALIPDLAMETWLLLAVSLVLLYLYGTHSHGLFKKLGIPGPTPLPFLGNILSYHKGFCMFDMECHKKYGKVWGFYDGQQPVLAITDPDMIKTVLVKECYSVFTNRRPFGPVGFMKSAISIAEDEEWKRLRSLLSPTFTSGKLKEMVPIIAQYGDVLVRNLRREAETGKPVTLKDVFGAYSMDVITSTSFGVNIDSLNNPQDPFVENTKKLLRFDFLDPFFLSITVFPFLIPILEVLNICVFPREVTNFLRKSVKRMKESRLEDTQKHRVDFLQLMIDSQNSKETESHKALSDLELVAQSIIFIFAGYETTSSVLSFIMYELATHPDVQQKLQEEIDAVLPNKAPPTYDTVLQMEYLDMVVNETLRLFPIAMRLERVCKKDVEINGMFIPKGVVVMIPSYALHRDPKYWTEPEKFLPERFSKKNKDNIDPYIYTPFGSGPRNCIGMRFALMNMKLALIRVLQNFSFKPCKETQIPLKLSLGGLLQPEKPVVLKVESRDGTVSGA

As to `c1ccc([C@]2(CCNCc3scc4c3CCC4)CCO[C@]3(CCOC3)C2)nc1` [(+)-2], the figures for the concentration for half-maximal inhibition (IC50) on CYP2D6 (read-out: CYP 2D6 IC50), on CYP2C9 and on CYP3A4 were 46.4 µM, greater than 50 µM and greater than 50 µM, respectively. In addition, in series [1], the CLint scaled is 49 mL/min/kg.
On to `Fc1ccc([C@]2(CCNCc3cccc(Cl)c3)CCO[C@]3(CCOC3)C2)nc1` [(+)-16], for which, at CYP2D6 (read-out: CYP 2D6 IC50), the 50% inhibitory concentration (IC50) stood at 12.7 µM. For the same compound, the concentration for half-maximal inhibition (IC50) on CYP2C9 was greater than 50 µM. For the same compound, the CLint scaled in series [1] came out at 29.2 mL/min/kg. Moreover, in series [2], the “Apparent Clearance Cl” value stood at 114 mL/min/kg, the Kp at […] came out at 4.61, the Vd came out at 6.3 L/kg and the AUC(0-inf) came out at 0.723 µM·h. For the same compound, in series [2], the half-life was 54 min and the C0 stood at 979 nM. In addition, on CYP3A4, the half-inhibitory concentration (IC50) was found to be 40.6 µM.
`Cc1cccc(CNCC[C@@]2(c3ccc(F)cn3)CCO[C@]3(CCOC3)C2)c1` [Hydrochloride Salt of (+)-22]: the IC50 on CYP2D6 was 19.3 µM; on CYP2C9 it was greater than 50 µM; at CYP3A4 it was greater than 50 µM. For the same compound, the CLint scaled in series [1] came to 13.5 mL/min/kg.
For `Fc1ccc([C@]2(CCNCc3cccc(F)c3)CCO[C@]3(CCOC3)C2)nc1` [Hydrochloride Salt of (+)-23], the half-inhibitory concentration (IC50) at CYP2D6 (read-out: CYP 2D6 IC50) is 17.8 µM. Moreover, the IC50 on CYP2C9 is greater than 50 µM. For the same compound, the CLint scaled in series [1] is 15.6 mL/min/kg. In series [2], the “Apparent Clearance Cl” value stood at 113 mL/min/kg, the Kp at […] was determined as 2.2, the Vd was 5 L/kg and the AUC(0-inf) is 0.763 µM·h. Besides, in series [2], the half-life is 42 min and the C0 came out at 1550 nM. The IC50 at CYP3A4 is greater than 50 µM.
For the compound `COc1ccsc1CNCC[C@@]1(c2ccccn2)CCOC2(CCCC2)C1` [compound 1, Oliceridine, reference compound], the half-inhibitory concentration (IC50) at CYP2D6 amounted to 4.6 µM. The IC50 at CYP2C9 was greater than 50 µM. In series [1], the CLint scaled was 314 mL/min/kg. Also, in series [2], the “Apparent Clearance Cl” value was 74.4 mL/min/kg, the Vd was found to be 4.3 L/kg, the AUC(0-inf) is 1.15 µM·h and the half-life was 48 min. Also, the C0 in series [2] was determined as 1900 nM.
